System: locally advanced or metastatic breast cancer
Experiment: Phase III clinical trial comparing eribulin mesylate and capecitabine
Conditions: for overall survival as compared to capecitabine: FIG. 6
[1] = of patients with any new metastasis

Procedure: A global, randomized, open-label, two-parallel-arm, phase III clinical trial of eribulin (eribulin mesylate) and capecitabine was performed.
This study randomized 1102 patients who had up to three prior chemotherapy regimens, and no more than two prior regimens for advanced and/or metastatic disease. The prior regimens must have included an anthracycline and a taxane, either in the (neo) adjuvant setting or for locally advanced or metastatic disease. Patients must have had documented evidence of progression during or after their most recent anti-cancer therapy. […] Patients were randomized to receive either eribulin mesylate as an intravenous (IV) infusion of 1.4 mg/m^2 over 2-5 minutes on days 1 and 8 every 21 days or capecitabine as an oral administration of 2.5 g/m^2/day administered twice daily in two equal doses on days 1 to 14 every 21 days.
This study was designed to have co-primary endpoints, overall survival (OS) and progression free survival (PFS), with alpha spending 0.04 and 0.01, respectively.
Progression events (disease progression determined by Response Evaluation Criteria in Solid Tumors [RECIST, version 1.0]) were categorized as: (i) emergence of a new lesion/metastasis, defined here as a lesion identified at progression that had not been previously reported, (ii) increase in size of an existing (previously reported) lesion (target or non-target), and (iii) other PFS event, e.g., death, clinical progression, or censoring. Investigator review of disease progression was used as the primary analysis for these investigations. Where progression was determined by investigator review, no further scans were performed, leading to informative censoring of independent review data (approximately 20%). The number of new metastases observed by independent review was considered an under-estimate due to this considerable informative censoring. OS and PFS were compared between treatment arms using two-sided, stratified (geographic region and HER2 status) log-rank tests. The correlation between progression events and OS was investigated by Cox regression, incorporating the event as a time-dependent covariate. New metastasis-free survival, defined as time from randomization to death or progression due to appearance of a new metastasis (whichever occurs earlier), was also analyzed.

C=C1C[C@@H]2CC[C@@]34C[C@H]5O[C@H]6[C@@H](O3)[C@H]3O[C@H](CC[C@@H]3O[C@H]6[C@H]5O4)CC(=O)C[C@@H]3[C@@H](OC)[C@@H](C[C@H](O)CN)O[C@H]3C[C@H]3O[C@@H](CC[C@@H]1O2)C[C@@H](C)C3=C.CS(=O)(=O)O [Eribulin, 11,15:18,21:24,28-Triepoxy-7,9-ethano-12,15-methano-9H,15H-furo[3,2-i]furo[2′,3′:5,6]pyrano[4,3-b][1,4]dioxacyclopentacosin-5(4H)-one, 2-[(2S)-3-amino-2-hydroxypropyl]hexacosahydro-3-methoxy-26-methyl-20,27-bis(methylene)-, (2R,3R,3aS,7R,8aS,9S,10aR,11S,12R,13aR,13bS,15S,18S,21S,24S,26R,28R,29aS)-methanesulfonate (salt)]
time to a new metastasis observed in the CNS, lungs, or liver (FIG. 5, in words): trend favouring eribulin over capecitabine
overall survival as compared to capecitabine (HER2 negative patients, in words): increased overall survival
median overall survival (OS) (all randomized patients): 15.9 months
median progression-free survival (PFS) (all randomized patients): 4.1 months
median survival as compared to capecitabine (breast cancers not characterized as triple negative, FIG. 7B, in words): similar
New metastasis site: Bone, patients (count): 60
New metastasis site: Breast, patients (count): 12
New metastasis site: CNS (brain/spine), patients (count): 13
New metastasis site: Chest wall, patients (count): 15
New metastasis site: Liver, patients (count): 71
New metastasis site: Lung, patients (count): 59
New metastasis site: Lymph nodes, patients (count): 64
New metastasis site: Other, patients (count): 30
New metastasis site: Skin, patients (count): 23
Number of patients with any new metastasis observed (count, investigator review, intent-to-treat): 291
hazard ratio, overall survival (eribulin versus capecitabine, 95% CI 0.77, 1.00): 0.88
hazard ratio, progression-free survival (eribulin versus capecitabine, 95% CI 0.93, 1.25): 1.08
1-year OS relative to capecitabine (in words): statistically significant improvement
new metastasis-free survival, median difference in favour of eribulin (independent review): 0.3 months
new metastasis-free survival, median difference in favour of eribulin (investigator review): 0.6 months
patients with progression due to a new metastasis (investigator review): 48.9%
patients with progression due to increase in the size of a pre-existing lesion (investigator review): 26.5%
patients with progression due to other reasons such as death and clinical progression (investigator review): 24.5%
patients with any new metastasis observed, percentage (investigator review, intent-to-treat): (52.5) %
HR, new metastasis-free survival (investigator review, eribulin versus capecitabine): 0.90
New metastasis site: Bone, percentage [1]: (20.6) %
New metastasis site: Breast, percentage [1]: (4.1) %
New metastasis site: CNS (brain/spine), percentage [1]: (4.5) %
New metastasis site: Chest wall, percentage [1]: (5.2) %
New metastasis site: Liver, percentage [1]: (24.4) %
New metastasis site: Lung, percentage [1]: (20.3) %
New metastasis site: Lymph nodes, percentage [1]: (22.0) %
New metastasis site: Other, percentage [1]: (10.3) %
New metastasis site: Skin, percentage [1]: (7.9) %
median OS longer with eribulin compared with capecitabine (patients whose disease progressed due to a new metastasis): 2.6 months
Median OS (patients whose disease progressed due to other events): 16.7 months
Median OS (patients with progression due to new metastasis): 15.5 months
Median OS (patients with progression due to pre-existing lesion): 17.4 months
HR, overall survival (progression due to new metastasis, eribulin versus capecitabine): 0.81
HR, overall survival (progression due to other events, eribulin versus capecitabine): 0.78
HR, overall survival (progression due to pre-existing lesion, eribulin versus capecitabine): 1.13
median survival as compared to capecitabine (triple negative breast cancers, FIG. 7A, in words): statistically significant increase
overall survival as compared to capecitabine (triple negative patients, in words): most significant improvement
